Target: T1, human ferroportin (Homo sapiens, UniProt Q9NP59)
T1 construct: luciferase reporter (read with the Nano-Glo Luciferase Assay System); expressed in transfected cells; host or cells: CHO cells, stably transfected, expression induced with doxycycline
T1 sequence (Q9NP59 1-571): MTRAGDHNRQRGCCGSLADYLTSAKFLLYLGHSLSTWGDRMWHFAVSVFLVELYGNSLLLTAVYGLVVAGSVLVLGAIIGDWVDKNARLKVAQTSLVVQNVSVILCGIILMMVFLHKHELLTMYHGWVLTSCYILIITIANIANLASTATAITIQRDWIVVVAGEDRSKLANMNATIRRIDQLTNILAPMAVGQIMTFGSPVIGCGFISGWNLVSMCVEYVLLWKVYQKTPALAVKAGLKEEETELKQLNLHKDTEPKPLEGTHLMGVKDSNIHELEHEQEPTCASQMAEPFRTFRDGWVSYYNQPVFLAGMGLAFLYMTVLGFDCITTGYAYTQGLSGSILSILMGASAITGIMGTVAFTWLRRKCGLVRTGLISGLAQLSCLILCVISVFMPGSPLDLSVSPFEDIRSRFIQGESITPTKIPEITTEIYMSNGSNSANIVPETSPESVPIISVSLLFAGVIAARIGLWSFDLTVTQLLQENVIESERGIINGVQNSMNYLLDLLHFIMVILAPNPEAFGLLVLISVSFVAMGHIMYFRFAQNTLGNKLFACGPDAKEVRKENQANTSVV
Assay: Biological in-vitro ferroportin internalization assay (luciferase reporter)
Format: cell-based
Conditions: average pEC50; stably-transfected CHO cell line expressing human ferroportin tagged to a luciferase reporter; 6 h incubation with test compound
Method in brief: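 Stably transfected CHO cells expressing luciferase-tagged human ferroportin, plated 24 h with ferric ammonium citrate and induced with doxycycline for 24 h. Compounds incubated 6 h, then luciferase activity measured by Nano-Glo; average pEC50 reported.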

| Structure (SMILES) | pEC50 |
| --- | --- |
| CC(C)NC(=O)CN(C)c1nc(-c2cc(OCC(C)(C)O)ccn2)nc2c1CCC2(C)C [Compound 450, 2-({2-[4-(2-hydroxy-2-methylpropoxy)pyridin-2-yl]-7,7-dimethyl-5H,6H,7H-cyclopenta[d]pyrimidin-4-yl}(methyl)amino)-N-(propan-2-yl)acetamide] | 6.4 |
| CO[C@H]1CCN(CCOc2ccnc(-c3nc4c(c(N(C)CC(=O)NC(C)(C)C)n3)CCC4)c2)C1 [Compound 464, N-tert-butyl-2-{[2-(4-{2-[(3S)-3-methoxypyrrolidin-1-yl]ethoxy}pyridin-2-yl)-5H,6H,7H-cyclopenta[d]pyrimidin-4-yl](methyl)amino}acetamide] | 8.0 |
| Cc1ccc(NC(=O)[C@@H](C)N(C)c2nc(-c3cc(OCCO)ccn3)nc3c2CCC3)cn1 [Compound 316, (2R)-2-({2-[4-(2-hydroxyethoxy)pyridin-2-yl]-5H,6H,7H-cyclopenta[d]pyrimidin-4-yl}(methyl)amino)-N-(6-methylpyridin-3-yl)propanamide] | 7.8 |
| Cc1ccc(NC(=O)CN(C)c2nc(-c3cc4cn[nH]c4cn3)nc3c2CCC3)cn1 [Compound 267, 2-[methyl(2-{1H-pyrazolo[3,4-c]pyridin-5-yl}-5H,6H,7H-cyclopenta[d]pyrimidin-4-yl)amino]-N-(6-methylpyridin-3-yl)acetamide] | 7.1 |
| CN(CC(=O)NC(C)(C)C)c1nc(-c2cc(OCC(C)(C)N(C)C)ccn2)nc2c1CCC2 [Compound 404, N-tert-butyl-2-[(2-{4-[2-(dimethylamino)-2-methylpropoxy]pyridin-2-yl}-5H,6H,7H-cyclopenta[d]pyrimidin-4-yl)(methyl)amino]acetamide] | 8 |
| CN(CC(=O)Nc1cnn(C)c1)c1nc(-c2cc(OCCF)ccn2)nc2c1CCC2 [Compound 243, 2-({2-[4-(2-fluoroethoxy)pyridin-2-yl]-5H,6H,7H-cyclopenta[d]pyrimidin-4-yl}(methyl)amino)-N-(1-methyl-1H-pyrazol-4-yl)acetamide] | 7.4 |
| CN(CC(=O)Nc1cccc(F)c1)c1nc(-c2cc(OCCN)ccn2)nc2c1CCC2 [Compound 293, 2-({2-[4-(2-aminoethoxy)pyridin-2-yl]-5H,6H,7H-cyclopenta[d]pyrimidin-4-yl}(methyl)amino)-N-(3-fluoropehnyl)acetamide] | 7.9 |
| CC(C)[C@@H](O)COc1ccnc(-c2nc3c(c(N(C)CC(=O)NC(C)(C)C)n2)CCC3)c1 [Compound 387, N-tert-butyl-2-[(2-{4-[(2R)-2-hydroxy-3-methylbutoxy]pyridin-2-yl}-5H,6H,7H-cyclopenta[d]pyrimidin-4-yl)(methyl)amino]acetamide] | 8.2 |
| CSCCOc1ccnc(-c2nc3c(c(N(C)CC(=O)NC(C)(C)C)n2)CCC3)c1 [Compound 506, N-tert-butyl-2-[methyl(2-{4-[2-(methylsulfanyl)ethoxy]pyridin-2-yl}-5H,6H,7H-cyclopenta[d]pyrimidin-4-yl)amino]acetamide] | 8.0 |
| C[C@H](C(=O)Nc1cccc(F)c1)N(C)c1nc(-c2cn(C)cn2)nc2c1CCC2 [Compound 277, (2R)—N-(3-fluorophenyl)-2-{methyl[2-(1-methyl-1H-imidazol-4-yl)-5H,6H,7H-cyclopenta[d]pyrimidin-4-yl]amino}propanamide] | 8.2 |
| C[C@H](C(=O)Nc1cccc(F)c1)N(C)c1nc(-c2cc(OCCO)ccn2)nc2c1CCC2 [Compound 251, (2R)—N-(3-fluorophenyl)-2-({2-[4-(2-hydroxyethoxy)pyridin-2-yl]-5H,6H,7H-cyclopenta[d]pyrimidin-4-yl}(methyl)amino)propanamide] | 8.3 |
| CN(CC(=O)NC(C)(C)C)c1nc(-c2cc(OC(C)(C)CO)ccn2)nc2c1CCC2 [Compound 425, N-tert-butyl-2-[(2-{4-[(1-hydroxy-2-methylpropan-2-yl)oxy]pyridin-2-yl}-5H,6H,7H-cyclopenta[d]pyrimidin-4-yl)(methyl)amino]acetamide] | 8.3 |
| COc1cccc(NC(=O)[C@@H](C)N(C)c2nc(-c3cn(C)cn3)nc3c2CCC3)c1 [Compound 278, (2R)—N-(3-methoxyphenyl)-2-{methyl[2-(1-methyl-1H-imidazol-4-yl)-5H,6H,7H-cyclopenta[d]pyrimidin-4-yl]amino}propanamide] | 7.8 |
| CN(CC(=O)NC(C)(C)C)c1nc(-c2cc(OCCOc3cccnn3)ccn2)nc2c1CCC2 [Compound 468, N-tert-butyl-2-[methyl(2-{4-[2-(pyridazin-3-yloxy)ethoxy]pyridin-2-yl}-5H,6H,7H-cyclopenta[d]pyrimidin-4-yl)amino]acetamide] | 8.5 |

Results, then the compound that gave them:

| pEC50 | Structure (SMILES) |
| --- | --- |
| 7.5 | CN(CC(=O)N1CCOCC1)c1nc(-c2cc(OCC(C)(C)O)ccn2)nc2c1CCC2 [Compound 399, 2-({2-[4-(2-hydroxy-2-methylpropoxy)pyridin-2-yl]-5H,6H,7H-cyclopenta[d]pyrimidin-4-yl}(methyl)amino)-1-(morpholin-4-yl)ethan-1-oneide] |
| 7.5 | CC(C)NC(=O)CN(C)c1nc(-c2cc(OCCN3CCN(C)CC3)ccn2)nc2c1CCC2 [Compound 432, 2-[methyl(2-{4-[2-(4-methylpiperazin-1-yl)ethoxy]pyridin-2-yl}-5H,6H,7H-cyclopenta[d]pyrimidin-4-yl)amino]-N-(propan-2-yl)acetamide] |
| 6.6 | COc1ccnc(-c2nc3c(c(N4CCCCCC4)n2)CCC3)c1 [Compound 53, 1-[2-(4-methoxypyridin-2-yl)-5H,6H,7H-cyclopenta[d]pyrimidin-4-yl]azepane] |
| 7.5 | CCNC(=O)CN(C)c1nc(-c2cc(OCC3(O)CC3)ccn2)nc2c1CCC2 [Compound 441, N-ethyl-2-[(2-{4-[(1-hydroxycyclopropyl)methoxy]pyridin-2-yl}-5H,6H,7H-cyclopenta[d]pyrimidin-4-yl)(methyl)amino]acetamide] |
| 6.8 | Cc1cccc(-c2nc3c(c(N(C)CC(=O)NC(C)(C)C)n2)CCC3)n1 [Compound 59, -tert-butyl-2-{methyl[2-(6-methylpyridin-2-yl)-5H,6H,7H-cyclopenta[d]pyrimidin-4-yl]amino}acetamide] |
| 5.5 | CN1CCCN(c2nc(-c3ccccn3)nc3c2CCC3)CC1 [Compound 85, 1-methyl-4-[2-(pyridin-2-yl)-5H,6H,7H-cyclopenta[d]pyrimidin-4-yl]-1,4-diazepane] |
| 7.5 | CN(CC(=O)NC1CCCCC1)c1nc(-c2cc(OCCO)ccn2)nc2c1CCC2 [Compound 144, N-cyclohexyl-2-({2-[4-(2-hydroxyethoxy)pyridin-2-yl]-5H,6H,7H-cyclopenta[d]pyrimidin-4-yl}(methyl)amino)acetamide] |
| 8 | CC(C)NC(=O)CN(C)c1nc(-c2cc(OCCN3CCCC3)ccn2)nc2c1CCC2 [Compound 429, 2-[methyl(2-{4-[2-(pyrrolidin-1-yl)ethoxy]pyridin-2-yl}-5H,6H,7H-cyclopenta[d]pyrimidin-4-yl)amino]-N-(propan-2-yl)acetamide] |
| 6.9 | COc1ccnc(-c2nc3c(c(N4CCCO[C@@H]5CCC[C@@H]54)n2)CCC3)c1 [Compound 54, 2-{4-[(5aS,8aR)-octahydro-2H-cyclopenta[b][1,4]oxazepin-5-yl]-5H,6H,7H-cyclopenta[d]pyrimidin-2-yl}-4-methoxypyridine] |

From US11746100B2 (GLOBAL BLOOD THERAPEUTICS, INC., priority 2020, dated 2023)
